Tests used:
NK-YS (IL-2 2.5 ng/mL) [1] = test: drug sensitivity score (DSS) (DSS units); higher = more sensitive; extreme values may be limits of the assay; details: 72 h
SNK-6 (IL-2 2.5 ng/mL) [2] = test: as above; details: 72 h
NK-92 (IL-2 2.5 ng/mL) [3] = test: as above; details: 72 h
NKL (IL-2 2.5 ng/mL) [4] = test: as above; details: 72 h
DERL-7 (IL-2 2.5 ng/mL) [5] = test: as above; details: 72 h
IMC-1 (IL-2 20 ng/mL) [6] = test: as above; details: 72 h
[7] = tested on: normal primary NK cells, pool 3 (3 donors) (IL-2 2.5 ng/mL); test: as above; details: 72 h
KAI3 (IL-2 2.5 ng/mL) [8] = test: as above; details: 72 h
[9] = tested on: normal primary NK cells, pool 1 (3 donors), resting (IL-2 0 ng/mL); test: as above; details: 72 h
[10] = tested on: normal primary NK cells, pool 2 (3 donors) (IL-2 2.5 ng/mL); test: as above; details: 72 h
[11] = tested on: normal primary NK cells, pool 1 (3 donors) (IL-2 2.5 ng/mL); test: as above; details: 72 h
KHYG-1 (IL-2 2.5 ng/mL) [12] = test: as above; details: 72 h
YT (IL-2 2.5 ng/mL) [13] = test: as above; details: 72 h
[14] = tested on: normal NK cells expanded with K562-aAPC; test: as above; details: 72 h; IL-2 2.5 ng/mL
Protocol: (§1)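 Drug sensitivity and resistance testing on K562-aAPC-expanded normal NK cells: 5 concentrations (10-fold steps over a 10,000-fold range), 72 h at 37 °C, viability by CellTiter-Glo normalised to DMSO and benzethonium chloride controls; DSS from the fitted curve.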

[15] = tested on: normal NK cells expanded with K562-aAPC; test: percent inhibition of viability; higher = more inhibition; details: 72 h, IL-2 2.5 ng/mL
Protocol: as §1

NK-YS (IL-2 2.5 ng/mL) [16] = test: as above; details: 72 h
SNK-6 (IL-2 2.5 ng/mL) [17] = test: as above; details: 72 h
NK-92 (IL-2 2.5 ng/mL) [18] = test: as above; details: 72 h
NKL (IL-2 2.5 ng/mL) [19] = test: as above; details: 72 h
DERL-7 (IL-2 2.5 ng/mL) [20] = test: as above; details: 72 h
IMC-1 (IL-2 20 ng/mL) [21] = test: as above; details: 72 h
[22] = tested on: normal primary NK cells, pool 3 (3 donors) (IL-2 2.5 ng/mL); test: as above; details: 72 h
KAI3 (IL-2 2.5 ng/mL) [23] = test: as above; details: 72 h
[24] = tested on: normal primary NK cells, pool 1 (3 donors), resting (IL-2 0 ng/mL); test: as above; details: 72 h
[25] = tested on: normal primary NK cells, pool 2 (3 donors) (IL-2 2.5 ng/mL); test: as above; details: 72 h
[26] = tested on: normal primary NK cells, pool 1 (3 donors) (IL-2 2.5 ng/mL); test: as above; details: 72 h
KHYG-1 (IL-2 2.5 ng/mL) [27] = test: as above; details: 72 h
YT (IL-2 2.5 ng/mL) [28] = test: as above; details: 72 h

CC(=O)NCC(=O)N1[C@@H]2CC[C@H]1c1ccc(Nc3ncc(C(F)(F)F)c(NC4CCC4)n3)cc12 (max concentration tested 10000 nM)
Details	drug sensitivity score
DERL-7 (IL-2 2.5 ng/mL) [5]	27.3
IMC-1 (IL-2 20 ng/mL) [6]	24.2
KAI3 (IL-2 2.5 ng/mL) [8]	22.9
KHYG-1 (IL-2 2.5 ng/mL) [12]	28.7
NK-92 (IL-2 2.5 ng/mL) [3]	22.1
NK-YS (IL-2 2.5 ng/mL) [1]	21.9
NKL (IL-2 2.5 ng/mL) [4]	22.5
SNK-6 (IL-2 2.5 ng/mL) [2]	31
YT (IL-2 2.5 ng/mL) [13]	15.1
[7]	10
[9]	3.63
[10]	12
[11]	11
[14]	24.6

percent inhibition of viability [%]
Details	1 nM	10 nM	100 nM	1000 nM	10000 nM
DERL-7 (IL-2 2.5 ng/mL) [20]	-3.49	2.07	76.5	79.7	101
IMC-1 (IL-2 20 ng/mL) [21]	1.14	-0.36	54.2	92.5	102
KAI3 (IL-2 2.5 ng/mL) [23]	2	18.3	49.2	85	103
KHYG-1 (IL-2 2.5 ng/mL) [27]	5.24	7.98	82.5	103	105
NK-92 (IL-2 2.5 ng/mL) [18]	-9.89	2.73	54	76.7	104
NK-YS (IL-2 2.5 ng/mL) [16]	-3.49	7.45	62.7	65.7	102
NKL (IL-2 2.5 ng/mL) [19]	-9.97	18.8	54.1	75	104
SNK-6 (IL-2 2.5 ng/mL) [17]	9.63	33.2	82.6	85.3	98.7
YT (IL-2 2.5 ng/mL) [28]	3.79	9.48	23.2	62.2	103
[15]	-3.83	6.05	58.2	91	101
[22]	-18.1	-9.96	2.88	33.6	97.8
[24]	-11.5	-16.5	-21.3	-42.6	91.9
[25]	-12.8	1.36	16.8	50.3	96.5
[26]	4.9	-3.44	17	44.7	98.1

CCn1c(-c2nonc2N)nc2cnc(Oc3cccc(NC(=O)c4ccc(OCCN5CCOCC5)cc4)c3)cc21 (max concentration tested 10000 nM)
Details	drug sensitivity score
DERL-7 (IL-2 2.5 ng/mL) [5]	18.2
IMC-1 (IL-2 20 ng/mL) [6]	2.4
KAI3 (IL-2 2.5 ng/mL) [8]	9.52
KHYG-1 (IL-2 2.5 ng/mL) [12]	6.96
NK-92 (IL-2 2.5 ng/mL) [3]	12.4
NK-YS (IL-2 2.5 ng/mL) [1]	12.6
NKL (IL-2 2.5 ng/mL) [4]	5.93
SNK-6 (IL-2 2.5 ng/mL) [2]	19.4
YT (IL-2 2.5 ng/mL) [13]	2.8
[7]	5.91
[9]	4.87
[10]	4.86
[11]	6.54
[14]	3.71

percent inhibition of viability [%]
Details	1 nM	10 nM	100 nM	1000 nM	10000 nM
DERL-7 (IL-2 2.5 ng/mL) [20]	1.35	15.3	42.9	62.8	72.7
IMC-1 (IL-2 20 ng/mL) [21]	-0.83	-2.25	6.95	14.1	26.8
KAI3 (IL-2 2.5 ng/mL) [23]	-3.04	-8.72	11.1	37.2	95
KHYG-1 (IL-2 2.5 ng/mL) [27]	1.19	3.45	16.6	24.8	68.2
NK-92 (IL-2 2.5 ng/mL) [18]	-3.47	11.4	34.4	37.1	74
NK-YS (IL-2 2.5 ng/mL) [16]	-0.26	-0.53	30.8	48.4	41.9
NKL (IL-2 2.5 ng/mL) [19]	-13.6	-19.1	-8.42	24	52.5
SNK-6 (IL-2 2.5 ng/mL) [17]	-9.46	8.6	49.6	70.1	55.5
YT (IL-2 2.5 ng/mL) [28]	1.84	-0.78	1.36	15.7	28.5
[15]	7.28	-0.78	-0.39	9.1	43.7
[22]	-9.45	-1.75	4.61	14.9	64.5
[24]	-4.42	-15.8	7.47	11.9	54.7
[25]	-8.71	-2.3	9.01	9.21	60.8
[26]	-7.22	2.09	6.8	18.7	70
